US6582968B2, “Paramagnetic and active analogue (EMP-2) of melanocyte stimulating hormone containing amino acid-type stable free radical” (Conselho Nacional de Desenvolvimento Cientifico e …, priority 1999, dated 2003)

System: frog (Rana catesbeiana) skin
Test: frog skin bioassay (skin darkening measured by reflectance)
Format: cell-based
Conditions: for time to reversal of the maximum response after removal of the agonist: 10^−8 M peptide, removal followed by several Ringer's solution washings, FIG. 5; for agonist character and potency compared to native α-MSH (dose-response curves): frog skin pigmentation, decrease in skin reflectance, FIG. 4
Procedure: The biological activity assay of the EPM-2 was carried out comparatively to the native α-MSH. The classical method of measuring by reflectance the alteration in the frog skin pigmentation was assayed, see, Gen. Comp. Endocrinol. 55, 104 (1984). The potency of the synthesized hormone was determined through a dose-effect curve and long lasting activities were measured until a maximum of 3 h after the peptide removal from the incubation system carried out with successive washes. Briefly, the skin of the thigh and the dorsal portion of a frog were removed and cut in pieces of 2×2 cm which were placed among two rings of PVC and maintained for 1 h in Ringer's solution. After this period, the melanin granules aggregate in the melanocytes, and the skin becomes clearer. When α-MSH or its spin labeled analogue is added to the medium, there is a dispersion of the pigments in the cell, resulting in skin darkening. The change in the coloration is therefore monitored (decrease in the skin reflectance) in a photovolt reflectometer. The result is expressed as percentage in relation to the initial value.

Substance: Acetyl-Toac-Ser-Tyr-Ser-Met-Glu-His-Phe-Arg-Trp-Gly-Lys-Pro-Val-CONH2 [EPM-2]
- time to reversal of the maximum response after removal of the agonist: 90 min
- agonist character and potency compared to native α-MSH (dose-response curves): fully maintaining the biological potency of the native α-MSH
- agonist character and potency compared to native α-MSH (dose-response curves) (listed as labeled analogue): full α-MSH agonist with equivalent potency
- natural biological activity maintained (relative to native α-MSH): 100%

Substance: Acetyl-Ser-Tyr-Ser-Met-Glu-His-Phe-Arg-Trp-Gly-Lys-Pro-Val-CONH2 (Ac-SYSMEHFRWGKPV-NH2) [α-MSH, native melanocyte stimulating hormone, comparator, reference compound]
- time to reversal of the maximum response after removal of the agonist: 90 min
